Common to all, as to assay type: cell-based
For one experiment, the system named is B. mallei. Kind of experiment: microbe, parasite or virus in culture. Conditions: Burkholderia mallei; for MIC50: read-out: B. mallei MIC50; for MIC90: read-out: B. mallei MIC90; for MIC: read-out: B. mallei MIC Range.
Another experiment deals with B. pseudomallei. Kind of experiment: microbe, parasite or virus in culture. The settings on record: Burkholderia pseudomallei; for MIC50: read-out: B. pseudomallei MIC50; for MIC90: read-out: B. pseudomallei MIC90; for MIC: read-out: B. pseudomallei MIC Range.
A further experiment concerns A. baumannii 1705943. Kind of experiment: MIC, microtiter-based liquid assay (CLSI). Conditions: Acinetobacter baumannii.
For a further experiment, the system named is B. anthracis. Kind of experiment: microbe, parasite or virus in culture. The settings on record: Bacillus anthracis; for MIC50: read-out: B. anthracis MIC50; for MIC90: read-out: B. anthracis MIC90; for MIC: read-out: B. anthracis MIC Range.
For a further experiment, the system named is A. baumannii 1705936. Nature of the experiment: MIC, microtiter-based liquid assay (CLSI). Conditions: Acinetobacter baumannii, MDR strain.
Another experiment has as its system E. coli CAG12184 TolC. Kind of experiment: MIC, microtiter-based liquid assay (CLSI). The settings on record: Escherichia coli, CAG12184TOLC.
A further experiment relates to P. aeruginosa ATCC27853. Nature of the experiment: MIC, microtiter-based liquid assay (CLSI). Conditions: Pseudomonas aeruginosa.
The next experiment deals with P. aeruginosa 1705904. Nature of the experiment: MIC, microtiter-based liquid assay (CLSI). Conditions: Pseudomonas aeruginosa, MDR strain.
The next experiment has as its system K. pneumoniae 1705966. Nature of the experiment: MIC, microtiter-based liquid assay (CLSI). The settings on record: Klebsiella pneumoniae.
Another experiment concerns E. coli 1705878. Kind of experiment: MIC, microtiter-based liquid assay (CLSI). Conditions: Escherichia coli, MDR strain.
The subject of the next experiment is E. coli ATCC25922. Nature of the experiment: MIC, microtiter-based liquid assay (CLSI). Conditions: Escherichia coli.
For the next experiment, the system named is K. pneumoniae 1705949. Kind of experiment: MIC, microtiter-based liquid assay (CLSI). The settings on record: Klebsiella pneumoniae, MDR strain.
A further experiment relates to Y. pestis. Nature of the experiment: microbe, parasite or virus in culture. The settings on record: Yersinia pestis; for MIC50: read-out: Y. pestis MIC50; for MIC90: read-out: Y. pestis MIC90; for MIC: read-out: Y. pestis MIC Range.
The subject of experiment [1] is E. faecium A6349 VanA + LNZ-R. Kind of experiment: MIC, microtiter-based liquid assay (CLSI). Conditions: Enterococcus faecium.
For a further experiment, the system named is E. coli MG1655 parent. Nature of the experiment: MIC, microtiter-based liquid assay (CLSI). Conditions: Escherichia coli.
For another experiment, the system named is S. aureus 11540 MRSA. Kind of experiment: MIC, microtiter-based liquid assay (CLSI). Conditions: Staphylococcus aureus.
A further experiment concerns P. aeruginosa 1705886. Kind of experiment: MIC, microtiter-based liquid assay (CLSI). The settings on record: Pseudomonas aeruginosa.
Experiment [2] deals with S. pneumoniae 02J1175 Mef(A). Nature of the experiment: MIC, microtiter-based liquid assay (CLSI). Conditions: Streptococcus pneumoniae.
A further experiment concerns F. tularensis. Nature of the experiment: microbe, parasite or virus in culture. The settings on record: Francisella tularensis; for MIC50: read-out: F. tularensis MIC50; for MIC90: read-out: F. tularensis MIC90; for MIC: read-out: F. tularensis MIC Range.
Setting [3] is: ATCC25922, read-out: MIC E. coli ATCC25922 + 50% HS.
Where [4] appears, read: ATCC25922, read-out: MIC E. coli ATCC25922.

SMILES strings stand for the structures. Converted amounts (≈) assume the structure as drawn. Read-outs that look alike come from different tables or passages of the source. Some results are limits rather than exact numbers.

Regarding `CC[C@H]1OC(=O)[C@H](C)[C@@H](O[C@H]2C[C@@](C)(OC)[C@@H](O)[C@H](C)O2)[C@H](C)[C@@H](O[C@@H]2O[C@H](C)C[C@H](N(C)C)[C@H]2O)[C@](C)(O)C[C@@H](C)CN(C)[C@H](C)[C@@H](O)[C@]1(C)O` [Azithromycin, reference compound], in the experiment on B. mallei, the MIC50 was 0.5 µg/mL (≈ 0.668 µM), the MIC90 amounted to 1 µg/mL (≈ 1.34 µM) and the MIC is 0.12 to 1 µg/mL (≈ 0.16 to 1.34 µM).
Regarding `CC(C)(O/N=C(\C(=O)N[C@@H]1C(=O)N2C(C(=O)[O-])=C(C[n+]3ccccc3)CS[C@H]12)c1csc(N)n1)C(=O)O` [Ceftazidime, reference compound], in the experiment with B. pseudomallei, the MIC50 stood at 2 µg/mL (≈ 3.66 µM), the MIC90 turned out to be 4 µg/mL (≈ 7.32 µM) and the MIC fell in the range of 1 to 64 µg/mL (≈ 1.83 to 117 µM).
As for `C[C@@H](N)CCCc1cc(Cl)c(F)c(-c2cc3cn(-c4ccc(CNCCCNC(=N)N)cc4)c(=O)nc3[nH]2)c1` [Compound 1], the MIC was 0.25 µg/mL (≈ 0.452 µM) with A. baumannii 1705943; 0.03 to 0.25 µg/mL (≈ 0.0542 to 0.452 µM) in the experiment on B. anthracis; 4 µg/mL (≈ 7.23 µM) in the experiment on A. baumannii 1705936; 0.06 µg/mL (≈ 0.108 µM) against E. coli CAG12184 TolC; 4 µg/mL (≈ 7.23 µM) in the experiment on P. aeruginosa ATCC27853; 0.03 to 0.25 µg/mL (≈ 0.0542 to 0.452 µM) with B. mallei. Also, the MIC is 8 µg/mL (≈ 14.5 µM) against P. aeruginosa 1705904; 0.25 µg/mL (≈ 0.452 µM) in the experiment on K. pneumoniae 1705966; 1 µg/mL (≈ 1.81 µM) against E. coli 1705878; 0.5 to 16 µg/mL (≈ 0.904 to 28.9 µM) in the experiment with B. pseudomallei; 0.125 µg/mL in the experiment on E. coli ATCC25922 (setting [3]); 0.125 µg/mL (≈ 0.226 µM) in the experiment with E. coli ATCC25922 (setting [4]). Further, the MIC in the experiment on K. pneumoniae 1705949 was 2 µg/mL (≈ 3.62 µM); in the experiment on Y. pestis, 0.03 to 0.5 µg/mL (≈ 0.0542 to 0.904 µM); in experiment [1], 4 µg/mL; with E. coli MG1655 parent, 0.5 µg/mL (≈ 0.904 µM); against S. aureus 11540 MRSA, 0.125 µg/mL (≈ 0.226 µM); against P. aeruginosa 1705886, 2 µg/mL (≈ 3.62 µM). The MIC in [2] is 0.25 µg/mL (≈ 0.452 µM); with F. tularensis, 0.03 to 0.5 µg/mL (≈ 0.0542 to 0.904 µM). For the same compound, the MIC50 is 0.12 µg/mL (≈ 0.217 µM) in the experiment on B. anthracis; at most 0.03 µg/mL in the experiment on B. mallei; 4 µg/mL (≈ 7.23 µM) in the experiment with B. pseudomallei; 0.12 µg/mL (≈ 0.217 µM) in the experiment on Y. pestis; at most 0.03 µg/mL in the experiment with F. tularensis. The MIC90 in the experiment on B. anthracis was 0.25 µg/mL (≈ 0.452 µM); with B. mallei it was 0.06 µg/mL (≈ 0.108 µM); in the experiment on B. pseudomallei, 4 µg/mL (≈ 7.23 µM); with Y. pestis, 0.25 µg/mL (≈ 0.452 µM); in the experiment with F. tularensis, at most 0.03 µg/mL.
Turning to `CCc1cc(CCC[C@H](C)N)cc(-c2cc3cn(-c4ccc(CNCCCNC(=N)N)cc4)c(=O)nc3[nH]2)c1F` [Compound 2], the MIC is 0.25 µg/mL (≈ 0.457 µM) in the experiment on A. baumannii 1705943; 0.03 to 1 µg/mL (≈ 0.0549 to 1.83 µM) with B. anthracis; 4 µg/mL (≈ 7.32 µM) against A. baumannii 1705936; 0.125 µg/mL (≈ 0.229 µM) against E. coli CAG12184 TolC; 4 µg/mL (≈ 7.32 µM) in the experiment with P. aeruginosa ATCC27853; 0.03 to 0.25 µg/mL (≈ 0.0549 to 0.457 µM) with B. mallei. Besides, the MIC with P. aeruginosa 1705904 was 8 µg/mL (≈ 14.6 µM); in the experiment on K. pneumoniae 1705966 it was 0.25 µg/mL (≈ 0.457 µM); against E. coli 1705878, 1 µg/mL (≈ 1.83 µM); in the experiment with B. pseudomallei, 0.5 to 8 µg/mL (≈ 0.915 to 14.6 µM); in the experiment with E. coli ATCC25922 (setting [3]), 0.25 µg/mL; in the experiment on E. coli ATCC25922 (setting [4]), 0.125 µg/mL (≈ 0.229 µM). In addition, the MIC was 0.5 µg/mL (≈ 0.915 µM) against K. pneumoniae 1705949; 0.03 to 0.25 µg/mL (≈ 0.0549 to 0.457 µM) with Y. pestis; 2 µg/mL in [1]; 0.25 µg/mL (≈ 0.457 µM) in the experiment on E. coli MG1655 parent; 0.25 µg/mL (≈ 0.457 µM) against S. aureus 11540 MRSA; 2 µg/mL (≈ 3.66 µM) in the experiment with P. aeruginosa 1705886. For the same compound, the MIC in experiment [2] was 0.125 µg/mL (≈ 0.229 µM); in the experiment with F. tularensis, 0.03 to 0.25 µg/mL (≈ 0.0549 to 0.457 µM). Further, the MIC50 with B. anthracis is 0.12 µg/mL (≈ 0.22 µM); with B. mallei, at most 0.03 µg/mL; in the experiment with B. pseudomallei it was 2 µg/mL (≈ 3.66 µM); with Y. pestis, 0.12 µg/mL (≈ 0.22 µM); with F. tularensis it was at most 0.03 µg/mL. Also, the MIC90 with B. anthracis was 0.12 µg/mL (≈ 0.22 µM); in the experiment with B. mallei, 0.06 µg/mL (≈ 0.11 µM); in the experiment on B. pseudomallei it was 4 µg/mL (≈ 7.32 µM); with Y. pestis, 0.25 µg/mL (≈ 0.457 µM); in the experiment on F. tularensis it was at most 0.03 µg/mL.
